According to patent US12611404B2, “Aza-aryl 1H-pyrazol-1-yl benzene sulfonamides” (ChemoCentryx, Inc., priority 2012, dated 2026):

Biological target: T1, CCR(9) (Homo sapiens, UniProt P51686)
T1 construct: CCR(9)-expressing cells such as T cell line MOLT-4 cells; host or cells: MOLT-4 cells
T1 sequence (P51686 1-369): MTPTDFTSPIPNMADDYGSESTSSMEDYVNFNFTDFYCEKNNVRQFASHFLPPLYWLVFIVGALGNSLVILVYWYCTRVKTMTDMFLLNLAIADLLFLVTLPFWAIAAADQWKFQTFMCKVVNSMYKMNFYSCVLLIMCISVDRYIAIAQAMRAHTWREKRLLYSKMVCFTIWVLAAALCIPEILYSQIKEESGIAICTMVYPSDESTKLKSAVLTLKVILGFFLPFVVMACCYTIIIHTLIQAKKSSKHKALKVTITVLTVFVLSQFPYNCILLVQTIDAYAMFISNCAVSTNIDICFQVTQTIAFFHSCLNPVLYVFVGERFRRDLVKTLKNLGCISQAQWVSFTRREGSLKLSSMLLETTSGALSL
Assay: calcium mobilization assay (FLIPR, MOLT-4 cells, hTECK)
Format: cell-based
Details: read-out: CCR(9) Ca^2+
Procedure: In calcium signaling assays used to determine the ability of a compound to interfere with binding between a chemokine receptor and a known chemokine ligand, chemokine receptor-expressing cells (CCR(9)-expressing cells such as T cell line MOLT-4 cells) are first incubated with a compound of interest, such as a potential chemokine antagonist, at increasing concentrations. The cell number can be from 10^5 to 5×10^6 cells per well in a 96-well microtiter plate. The concentration of the compound being tested may range from 0 to 100 μM. After a period of incubation (which can range from 5 to 60 minutes), the treated cells are placed in a Fluorometric Imaging Plate Reader (FLIPR®) (available from Molecular Devices Corp., Sunnyvale, CA) according to the manufacturer's instruction. The FLIPR® system is well known to those skilled in the art as a standard method of performing assays. The cells are then stimulated with an appropriate amount of the chemokine ligand (TECK for CCR(9)) at 5-100 nM final concentration, and the signal of intracellular calcium increase (also called calcium flux) is recorded. The efficacy of a compound as an inhibitor of binding between the […] and the ligand can be calculated as an IC50 (the concentration needed to cause 50% inhibition in signaling) or IC90 (at 90% inhibition). […]
A cytoplasmic calcium mobilization assay was used to determine the efficacy of potential receptor antagonists at blocking the signals mediated through chemokine receptors, such as CCR(9). This assay was routinely performed using the Fluorescent Imaging Plate Reader (FLIPR, Molecular Devices). […] The chemokine agonist (i.e., hTECK), prepared in HBSS at a 5× concentration of the previously determined EC^50 concentration, was added to each well and resulting changes in the fluorescent intensity, indicative of chemokine receptor-mediated signaling, were recorded on the FLIPR.

IC50 [nM] | Compound
< 100 | Cc1cc(NS(=O)(=O)c2ccc(C(C)(C)C)cc2Cl)n(-c2cccc3ncccc23)n1
< 100 | CCc1cc(NS(=O)(=O)c2ccc(C(C)(C)C)cc2)n(-c2cccc3ncccc23)n1
< 100 | Cc1cc(NS(=O)(=O)c2ccc(C(C)(C)C)cc2)n(-c2ccc3cccnc3c2)n1
